Drawing on paper PMC8286840, “Identifying SARS-CoV-2 antiviral compounds by screening for small molecule inhibitors of Nsp3 papain-like protease” (Biochemical Journal, 2021), this text covers remaining activity for 28 compounds.

Where a name gives a salt, the structure may show the parent alone. Read-outs that look alike come from different tables or passages of the source. Where a SMILES comes first, the peptide text is derived from it.

Experiment [1] has as its target T1, SARS-CoV-2 PLpro (nsp3 1564–1878) (Severe acute respiratory syndrome coronavirus 2, UniProt P0DTD1). Put plainly: biochemical. The arrangement: FRET-quenched peptide (Pro3) cleavage by PLpro, 10 min pre-incubation, slope over 20 min, normalised to no-compound control. Conditions: high concentration screen, read-out: % of control remaining.
For experiment [2], the target named is T1, SARS-CoV-2 PLpro (nsp3 1564–1878). Kind of experiment: biochemical. Details: FRET-quenched peptide (Pro3) cleavage by PLpro, 10 min pre-incubation, slope over 20 min, normalised to no-compound control. Conditions: low concentration screen, read-out: % of control remaining.

Turning to `NC1(Cc2ccc(Cl)cc2)CCN(c2ncnc3[nH]ccc23)CC1` [CCT128930], the remaining activity at 3.75 µM in experiment [1] (Well no.=5302) is 95.6%. The remaining activity at 1.25 µM in experiment [2] (Well no.=5302) is 97.5%.
Take `CN1C[C@H](C(=O)N[C@]2(C)O[C@@]3(O)[C@@H]4CCCN4C(=O)[C@H](Cc4ccccc4)N3C2=O)C[C@@H]2c3cccc4[nH]cc(c34)C[C@H]21` [Dihydroergotamine (mesylate)]: the remaining activity at 3.75 µM in experiment [1] (Well no.=6947) was 92.7%. Further, in experiment [2] (Well no.=6947), the remaining activity at 1.25 µM was determined as 92.6%.
Take `Cc1ccc(C)c(-c2cc(C(F)(F)F)nn2-c2ccc(S(N)(=O)=O)cc2)c1` [4-[5-(2,5-dimethylphenyl)-3-(trifluoromethyl)-1H-pyrazol-1-yl]benzenesulfonamide]: the remaining activity at 3.75 µM in experiment [1] (Well no.=5924) worked out at 89.1%. In experiment [2] (Well no.=5924), the remaining activity at 1.25 µM stood at 97.9%.
As to `Ic1ccccc1CN[C@@H]1C2CCN(CC2)[C@@H]1C(c1ccccc1)c1ccccc1` [L-703,606 oxalate], the remaining activity at 3.75 µM in experiment [1] (Well no.=964) was 96%. Also, the remaining activity at 1.25 µM in experiment [2] (Well no.=964) was determined as 96.7%.
`CC(C)(CO)[C@@H](O)C(=O)NCCC(=O)O` [Pantothenic acid]: in experiment [1] (Well no.=2288), the remaining activity at 3.75 µM is 92.3%. For the same compound, the remaining activity at 1.25 µM in experiment [2] (Well no.=2288) was 90.1%.
Regarding `CCCCC/C=C\C/C=C\CCCCCCCC(=O)O` [Linoleic acid], the remaining activity at 3.75 µM in experiment [1] (Well no.=4349) is 101%; in experiment [1] (Well no.=7029) it was 85.7%. The remaining activity at 1.25 µM amounted to 103% in experiment [2] (Well no.=4349) and 94.8% in experiment [2] (Well no.=7029).
As to `O=C1N=C(NCc2cccs2)S/C1=C\c1ccc2ncccc2c1` [Cdk1 Inhibitor IV, RO-3306], the remaining activity at 3.75 µM in experiment [1] (Well no.=2347) stood at 104%. For the same compound, the remaining activity at 1.25 µM in experiment [2] (Well no.=2347) came out at 103%.
With `CC[C@@H](CO)NC(=O)[C@@H]1C=C2c3cccc4c3c(cn4C)C[C@H]2N(C)C1` [Methysergide maleate], the remaining activity at 3.75 µM in experiment [1] (Well no.=2284) is 90.3%. For the same compound, the remaining activity at 1.25 µM in experiment [2] (Well no.=1087) stood at 94.2%; in experiment [2] (Well no.=2284), 94.8%.
As for `c1ccc2c(Cc3c[nH]c4ccccc34)c[nH]c2c1` [Diindolylmethane], the figures for the remaining activity at 3.75 µM in experiment [1] (Well no.=3516) and in experiment [1] (Well no.=4509) were 104% and 92.4%, respectively. Moreover, the remaining activity at 1.25 µM came out at 102% in experiment [2] (Well no.=3516) and 88.9% in experiment [2] (Well no.=4509).
`CCCCOC(=O)NC(=O)C1c2ccccc2Oc2ccccc21` [Ro 67-4853]: in experiment [1] (Well no.=5989), the remaining activity at 3.75 µM amounted to 99.5%. The remaining activity at 1.25 µM in experiment [2] (Well no.=5989) stood at 102%.
For the compound `CCC1=C(C)CN(C(=O)NCCc2ccc(S(=O)(=O)NC(=O)N[C@H]3CC[C@H](C)CC3)cc2)C1=O` [Glimepiride], the remaining activity at 3.75 µM in experiment [1] (Well no.=2178) was 97%. Further, in experiment [2] (Well no.=2178), the remaining activity at 1.25 µM came out at 96.4%.
Consider `CC[C@H](NC(=O)[C@H](C)NC)C(=O)N1C[C@@H](O)C[C@H]1Cc1c(-c2[nH]c3cc(F)ccc3c2C[C@@H]2C[C@H](O)CN2C(=O)[C@H](CC)NC(=O)[C@H](C)NC)[nH]c2cc(F)ccc12` [Birinapant], for which the remaining activity at 3.75 µM in experiment [1] (Well no.=6542) was determined as 75.1%. The remaining activity at 1.25 µM in experiment [2] (Well no.=6542) amounted to 95%.
`O=C(Nc1ccccc1C(=O)Nc1ccc(CCO)cc1)c1ccc([N+](=O)[O-])cc1` [KS-176]: the remaining activity at 3.75 µM in experiment [1] (Well no.=5911) was 102%. The remaining activity at 1.25 µM in experiment [2] (Well no.=5911) stood at 101%.
Regarding `c1ccc(-c2ccc(C(c3ccccc3)n3ccnc3)cc2)cc1` (centres unmarked) [Bifonazole], the remaining activity at 3.75 µM in experiment [1] (Well no.=2173) came out at 101%. Besides, in experiment [2] (Well no.=2173), the remaining activity at 1.25 µM was found to be 99.6%.
As for `COc1ccc2ccc(=O)oc2c1CC=C(C)C` [Osthole], the figures for the remaining activity at 3.75 µM in experiment [1] (Well no.=3440) and in experiment [1] (Well no.=8333) were 88.2% and 94.5%, respectively. Further, the results for the remaining activity at 1.25 µM in experiment [2] (Well no.=3440) and in experiment [2] (Well no.=8333) were 91.5% and 98.6%, respectively.
Turning to `CC1(C)S[C@@H]2[C@H](NC(=O)[C@H](NC(=O)N3CCNC3=O)c3ccccc3)C(=O)N2[C@H]1C(=O)O` [Azlocillin (sodium salt)], the remaining activity at 3.75 µM in experiment [1] (Well no.=7454) was determined as 101%. Besides, the remaining activity at 1.25 µM in experiment [2] (Well no.=7454) came to 94.9%.
In the case of `Cn1cc(CNCC2CCN(c3ncc(C(=O)NO)cn3)CC2)c2ccccc21` [JNJ-26481585], in experiment [1] (Well no.=5224), the remaining activity at 3.75 µM was 98.4%. Also, in experiment [2] (Well no.=5224), the remaining activity at 1.25 µM came to 98.6%.
`O=C1CCc2cc(OCCCCc3nnnn3C3CCCCC3)ccc2N1` [Cilostazol]: the remaining activity at 3.75 µM in experiment [1] (Well no.=281) turned out to be 95.3%. Besides, in experiment [2] (Well no.=281), the remaining activity at 1.25 µM was 94.5%.
In the case of `c1cc2c(cc1[C@H]1OC[C@@H]3[C@H]1CO[C@H]3c1ccc3c(c1)OCO3)OCO2` [(-)-Asarinin], the remaining activity at 3.75 µM in experiment [1] (Well no.=3160) is 101%. For the same compound, in experiment [2] (Well no.=3160), the remaining activity at 1.25 µM amounted to 98.8%.
On to `Oc1cc(O)c2c(c1)O[C@H](c1ccc(O)c(O)c1)[C@@H](O)C2` [(+)-Catechin Hydrate], for which, in experiment [1] (Well no.=283), the remaining activity at 3.75 µM was determined as 99.7%. In addition, in experiment [2] (Well no.=283), the remaining activity at 1.25 µM amounted to 98%.
For the compound `CN1CCC(=C2c3ccccc3CCn3c(C=O)cnc32)CC1` [Alcaftadine], the remaining activity at 3.75 µM in experiment [1] (Well no.=6573) was 91.1%. Further, the remaining activity at 1.25 µM in experiment [2] (Well no.=6573) amounted to 94.6%.
In the case of `C[C@H](NC(=O)[C@@H](N)CCC(=O)O)C(=O)O` [_-L-Glutamyl-L-alanine] (H-Glu-Ala-OH), the remaining activity at 3.75 µM in experiment [1] (Well no.=7750) turned out to be 104%. For the same compound, the remaining activity at 1.25 µM in experiment [2] (Well no.=7750) was determined as 105%.
Turning to `CCOC(=O)[C@H](CCc1ccccc1)N[C@@H](C)C(=O)N1CCC[C@H]1C(=O)O` [Enalapril (maleate)], the remaining activity at 3.75 µM in experiment [1] (Well no.=7638) worked out at 94.6%. In addition, in experiment [2] (Well no.=7638), the remaining activity at 1.25 µM was found to be 93.9%.
As to `CCNC(=O)c1noc(-c2cc(C(C)C)c(O)cc2O)c1-c1ccc(CN2CCOCC2)cc1` [AUY922 (NVP-AUY922)], the remaining activity at 3.75 µM in experiment [1] (Well no.=5005) was determined as 102%. Further, the remaining activity at 1.25 µM in experiment [2] (Well no.=5005) amounted to 103%.
As for `CCN[C@H]1CO[C@@H](O[C@H]2[C@H](O[C@H]3C#C/C=C\C#C[C@]4(O)CC(=O)C(NC(=O)OC)=C3/C4=C/CSSSC)O[C@H](C)[C@@H](NO[C@H]3C[C@H](O)[C@H](SC(=O)c4c(C)c(I)c(O[C@@H]5O[C@@H](C)[C@H](O)[C@@H](OC)[C@H]5O)c(OC)c4OC)[C@@H](C)O3)[C@@H]2O)C[C@@H]1OC` [Calicheamicin], in experiment [1] (Well no.=7060), the remaining activity at 3.75 µM is 91.6%. Also, the remaining activity at 1.25 µM in experiment [2] (Well no.=7060) turned out to be 94.4%.
Consider `CCCCC[C@H](O)/C=C/[C@@H]1[C@@H](CC(=O)CCC(=O)O)[C@@H](O)C[C@@H]1O` [2,3-Dinor-6-keto-prostaglandin F1a], for which the remaining activity at 3.75 µM in experiment [1] (Well no.=4527) was 97.9%. Besides, the remaining activity at 1.25 µM in experiment [2] (Well no.=4527) is 93.5%.
With `C[C@H](Nc1cc(NS(=O)(=O)N2CCC2)nc(SCc2cccc(F)c2F)n1)[C@@H](O)CO` [SRT3190], the figures for the remaining activity at 3.75 µM in experiment [1] (Well no.=7438) and in experiment [1] (Well no.=8507) were 104% and 97.8%, respectively. Besides, the remaining activity at 1.25 µM was 104% in experiment [2] (Well no.=7438) and 98.1% in experiment [2] (Well no.=8507).
On to `c1ccc2c(CC3=NCCN3)cccc2c1` [Naphazoline (hydrochloride)], for which, in experiment [1] (Well no.=7529), the remaining activity at 3.75 µM turned out to be 97.5%. Also, in experiment [2] (Well no.=7529), the remaining activity at 1.25 µM was 96.6%.
